Reference: patent US7002012B2, “Substituted (1,3-bis(cyclohexylmethyl)-1,2,3,6-tetrahydro-2,6-dioxo-9h-purin-8-YI)phenyl derivatives, their preparation and their use in the treatment of inflammatory conditions and immune disorders” (SmithKline Beecham Corporation, priority 1997, dated 2006)

Experiments:
[1] = test system: male Lewis rats; assay: Acetic Acid Colitis Assay; type: in vivo, rat; settings: for ACETIC ACID COLITIS (24 hr) ACTIVE DOSE [MG/KG] (ROUTE) TISSUE WEIGHT: colon weight (edema); for ACETIC ACID COLITIS (24 hr) ACTIVE DOSE [MG/KG] (ROUTE) MPO: mucosal MPO levels
Description: Compounds were administered either orally or rectally 24, 16 and 4 hours prior to the 40 second instillation of 3% acetic acid solution in the proximal 6 cm of the colon under light anesthesia. The colon was immediately washed with 5 cc of saline. 24 hours later the rats were sacrificed and 6 cm of the proximal colon was excised weighed for edema. Neutrophil inflammation was determined by measuring MPO levels in the scraped colonic mucosa from these rats.

[2] = test system: male Lewis rats; assay: Carrageenan Pleurisy Assay; type: in vivo, rat; settings: for CARRAGEENAN PLEURISY (4 hr) LOCAL ED50 (MG/RAT) CELLS: inhibition of inflammatory cells (neutrophils) in pleural exudate four hours after carrageenan 0.075 mg/rat; for CARRAGEENAN PLEURISY (4 hr) LOCAL ED50 (MG/RAT) CELLS / CARRAGEENAN PLEURISY (4 hr) LOCAL ED50 (MG/RAT) EDEMA: local administration; for CARRAGEENAN PLEURISY (4 hr) LOCAL ED50 (MG/RAT) EDEMA: inhibition of pleural edema four hours after carrageenan 0.075 mg/rat
Description: The antiinflammatory activity of compounds of the invention was determined by the procedure of Vinegar, R, et al., Proc. Soc. Exp. Biol. Med., 1981, 168, 24–32, using male Lewis rats of 150±±}20 grams. The carrageenan dose was 0.075 mg/rat. Pleural exudate was harvested four hours after injection of carrageenan. Acute antiinflammatory activity was determined by inhibition of pleural edema and inflammatory cells (neutrophils) from a negative (vehicle) control group.

[3] = test system: Male CD-1 mice; assay: In Vivo Septic Shock Model: C Parvum/LPS Shock; settings: oral dose 75 mg/kg, 2 hours before the LPS and at the same time as the LPS
Description: Male CD-1 mice, 25–30 g (Charles River: Raleigh, N.C.), are injected intravenously (i.v.) with 100 μμ}g killed C. Parvum (Coparvax; Burroughs Wellcome, RTP, NC).Ten days later the mice are injected i.v. with 20 μμ}g E. Coli 026:B6 lipopolysaccharide (LPS; Difco Labs, Detroit, Mich.) in the presence of the analgesic butorphenol (150 μμ}g per mouse).
The test compounds are dissolved in dimethyl sulphoxide and diluted into 0.5% methyl cellulose and then dosed orally 2 hours before the LPS and at the same time as the LPS.

[4] = ic = intracolonic administration

Compound | CARRAGEENAN PLEURISY (4 hr) LOCAL ED50 (MG/RAT) CELLS [2] | CARRAGEENAN PLEURISY (4 hr) LOCAL ED50 (MG/RAT) EDEMA [2] [MG/RAT] | other results
COCCOCCOCCOCCOCCOCCOCCOCCOCCOC(=O)/C=C/c1ccc(-c2nc3c(=O)n(CC4CCCCC4)c(=O)n(CC4CCCCC4)c3[nH]2)cc1 [Example 10, (E)-4-(1,3-Bis(cyclohexylmethyl)-1,2,3,6-tetrahydro-2,6-dioxo-9H-purin-8-yl)cinnamic Acid Nonaethylene Glycol Methyl Ether Ester] | 0.5 MG/RAT | 0.5 | ACETIC ACID COLITIS (24 hr) ACTIVE DOSE [MG/KG] (ROUTE) TISSUE WEIGHT ([1]; po = oral administration): 50 mg/kg; ACETIC ACID COLITIS (24 hr) ACTIVE DOSE [MG/KG] (ROUTE) MPO ([1]; po = oral administration): 50 mg/kg
O=C(O)/C=C/c1ccc(-c2nc3c(=O)n(CC4CCCCC4)c(=O)n(CC4CCCCC4)c3[nH]2)cc1 [compound 1, (E)-4-[1,3 Bis(cyclohexylmethyl)-1,2,3,6-tetrahydro-2,6-dioxo-9H-purin-8-yl]cinnamic acid, reference compound] | – | – | activity in Acetic Acid Colitis Assay [1]: inactive; % Survivors [3]: 25%; Alive/Total [3]: 2/8; activity in Carrageenan Pleurisy Assay [2]: inactive
(E)-4-(1,3-Bis(cyclohexylmethyl)-1,2,3,6-tetrahydro-2,6-dioxo-9H-purin-8-yl)cinnamic Acid Polyethylene Glycol (n=41.5) Methyl Ether Ester [Example 14] | Inactive | 0.5 | –
COCCOCCOCCOCCOCCOCCOCCOCCOCCOCCOC(=O)/C=C/c1ccc(-c2nc3c(=O)n(CC4CCCCC4)c(=O)n(CC4CCCCC4)c3[nH]2)cc1 [Example 9, (E)-4-(1,3-Bis(cyclohexylmethyl)-1,2,3,6-tetrahydro-2,6-dioxo-9H-purin-8-yl)cinnamic Acid Decaethylene Glycol Methyl Ether Ester] | 0.02 MG/RAT | 0.2 | ACETIC ACID COLITIS (24 hr) ACTIVE DOSE [MG/KG] (ROUTE) TISSUE WEIGHT [1, 4]: 5.0 mg/kg; ACETIC ACID COLITIS (24 hr) ACTIVE DOSE [MG/KG] (ROUTE) MPO [1, 4]: 5.0 mg/kg; % Survivors [3]: 50%; Alive/Total [3]: 4/8
C[C@@H]1C[C@H]2[C@@H]3CCC4=CC(=O)C=C[C@]4(C)[C@@]3(F)[C@@H](O)C[C@]2(C)[C@@]1(O)C(=O)CO [Dexamethasone, reference compound] | 0.02 MG/RAT | 0.015 | ACETIC ACID COLITIS (24 hr) ACTIVE DOSE [MG/KG] (ROUTE) TISSUE WEIGHT [1, 4]: 0.17 mg/kg; ACETIC ACID COLITIS (24 hr) ACTIVE DOSE [MG/KG] (ROUTE) MPO [1, 4]: 0.03 mg/kg
(E)-4-(1,3-Bis(cyclohexylmethyl)-1,2,3,6-tetrahydro-2,6-dioxo-9H-purin-8-yl)cinnamic Acid Polyethylene Glycol (n=15) Methyl Ether Ester [Example 15] | 0.4 MG/RAT | 0.2 | ACETIC ACID COLITIS (24 hr) ACTIVE DOSE [MG/KG] (ROUTE) TISSUE WEIGHT ([1]; po = oral administration): inactive; ACETIC ACID COLITIS (24 hr) ACTIVE DOSE [MG/KG] (ROUTE) MPO ([1]; po = oral administration): 50 mg/kg
(E)-4-(1,3-Bis(cyclohexylmethyl)-1,2,3,6-tetrahydro-2,6-dioxo-9H-purin-8-yl)cinnamic Acid Polyethylene Glycol (n=32.2) Ester [Example 16] | 0.2 MG/RAT | 0.2 | –
(E)-4-(1,3-Bis(cyclohexylmethyl)-1,2,3,6-tetrahydro-2,6-dioxo-9H-purin-8-yl)cinnamic Acid Polyethylene Glycol (n=18.9) Ester [Example 17] | 0.1 MG/RAT | 0.1 | –
(E)-4-(1,3-Bis(cyclohexylmethyl)-1,2,3,6-tetrahydro-2,6-dioxo-9H-purin-8-yl)cinnamic Acid Polyethylene Glycol (n=13) Ester [Example 18] | 0.1 MG/RAT | 0.1 | –
